Source: patent US6737383B1, “Herbicidal oxadiazolidines” (priority 1999, dated 2004)

Key:
blackgrass = assay: Test B pre/postemergence blackgrass; format: in vivo, Alopecurus myosuroides
How it was run: (§1)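 Response is a visual 0-to-10 score relative to untreated plants, where 0 means no effect and 10 means complete control, taken twelve to sixteen days after application. Treatments went onto soil at planting and onto foliage of 1- to 4-leaf plants, using a surfactant-containing non-phytotoxic solvent.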

wheat = assay: Test B pre/postemergence wheat; format: in vivo, Triticum aestivum
How it was run: as §1

duck salad = assay: Test B flood test duck salad; format: in vivo, Heteranthera limosa
How it was run: (§2)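 Each value is a visual injury score relative to controls, with 10 meaning complete control and 0 no effect. Evaluation took place twelve to sixteen days after the 2-leaf-stage plants were treated and kept in the greenhouse.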

bedstraw = assay: Test B pre/postemergence bedstraw; format: in vivo, Galium aparine; conditions: Postemergence
How it was run: as §1

smallflower flatsedge = assay: Test B flood test smallflower flatsedge; format: in vivo, Cyperus difformis
How it was run: as §2

rape = assay: Test B pre/postemergence rape; format: in vivo, Brassica napus
How it was run: as §1

rice = assay: Test B flood test rice; format: in vivo, Oryza sativa
How it was run: as §2

sugar beet = assay: Test B pre/postemergence sugar beet; format: in vivo, Beta vulgaris
How it was run: as §1

velvetleaf = assay: Test B pre/postemergence velvetleaf; format: in vivo, Abutilon theophrasti
How it was run: as §1

pigweed = assay: Test B pre/postemergence pigweed; format: in vivo, Amaranthus retroflexus
How it was run: as §1

surinam grass = assay: Test B pre/postemergence surinam grass; format: in vivo, Brachiaria decumbens
How it was run: as §1

soybean = assay: Test B pre/postemergence soybean; format: in vivo, Glycine max
How it was run: as §1

purple nutsedge = assay: Test B pre/postemergence purple nutsedge; format: in vivo, Cyperus rotundus
How it was run: as §1

crabgrass = assay: Test B pre/postemergence crabgrass; format: in vivo, Digitaria sanguinalis
How it was run: as §1

corn = assay: Test B pre/postemergence corn; format: in vivo, Zea mays
How it was run: as §1

wild oat = assay: Test B pre/postemergence wild oat; format: in vivo, Avena fatua
How it was run: as §1

[1] = Postemergence, Rate 250 g/ha, scale 0 to 10
[2] = Postemergence, Rate 500 g/ha, scale of 0 to 10 where 0 is no effect and 10 is complete control
[3] = Preemergence, Rate 62 g/ha, scale 0 to 10 (0 no effect, 10 complete control)
[4] = Preemergence, Rate 125 g/ha, scale of 0 to 10 where 0 is no effect and 10 is complete control
[5] = Preemergence, Rate 250 g/ha, scale 0 to 10, 0 is no effect, 10 is complete control
[6] = Preemergence, Rate 500 g/ha, scale 0 to 10, 0 is no effect, 10 is complete control
[7] = Rate 62 g/ha, Postemergence, scale of 0 to 10 where 0 is no effect and 10 is complete control
[8] = Rate 125 g/ha, Postemergence, scale 0 to 10, 0 is no effect, 10 is complete control
[9] = Postemergence block (flood test species), Rate 250 g/ha, scale 0 to 10
[10] = Postemergence section (flood test species), Rate 500 g/ha, scale of 0 to 10 where 0 is no effect and 10 is complete control
[11] = Rate 125 g/ha, Postemergence section (flood test species), scale 0 to 10, 0 is no effect, 10 is complete control

`C=CC[Si](C)(C)Cn1c(=O)on(C(=O)N(c2ccc(F)cc2)C(C)C)c1=O` [Compound 426] was tested, and the “Blackgrass plant response rating” value (blackgrass; [1]) was 8, the “Blackgrass plant response rating” value (blackgrass; [2]) was 8 and the “Plant response rating, Blackgrass” value (blackgrass; [3]) was 4. For the same molecule, the “Plant response rating, Blackgrass” value (blackgrass; [4]) was 6, the “Blackgrass plant response rating” value (blackgrass; [5]) was 9 and the “Blackgrass plant response rating” value (blackgrass; [6]) was 9. For the same molecule, the “Blackgrass plant response rating” value (blackgrass; [7]) was 3, the “Blackgrass plant response rating” value (blackgrass; [8]) was 6 and the “Wheat plant response rating” value (wheat; [1]) was 0. The “Wheat plant response rating” value (wheat; [2]) was 2, the “Plant response rating, Wheat” value (wheat; [3]) was 0 and the “Plant response rating, Wheat” value (wheat; [4]) was 0. The “Wheat plant response rating” value (wheat; [5]) was 2, the “Wheat plant response rating” value (wheat; [6]) was 6 and the “Wheat plant response rating” value (wheat; [8]) was 0. The “Ducksalad plant response rating” value (duck salad; [9]) was 0, the “Ducksalad plant response rating” value (duck salad; [10]) was 0 and the “Ducksalad plant response rating” value (duck salad; Rate 62 g/ha, Postemergence (flood test species), scale of 0 to 10 where 0 is no effect and 10 is complete control) was 0. For the same molecule, the “Ducksalad plant response rating” value (duck salad; [11]) was 0, the “Bedstraw plant response rating” value (bedstraw; Rate 250 g/ha, scale 0 to 10) was 9 and the “Bedstraw plant response rating” value (bedstraw; Rate 500 g/ha, scale of 0 to 10 where 0 is no effect and 10 is complete control) was 9. For the same molecule, the “S. Flatsedge plant response rating” value (smallflower flatsedge; [9]) was 0, the “S. Flatsedge plant response rating” value (smallflower flatsedge; [10]) was 0 and the “S. Flatsedge plant response rating” value (smallflower flatsedge; [11]) was 0. The “Rape plant response rating” value (rape; [1]) was 2, the “Rape plant response rating” value (rape; [2]) was 4 and the “Plant response rating, Rape” value (rape; [3]) was 0. For the same molecule, the “Plant response rating, Rape” value (rape; [4]) was 0, the “Rape plant response rating” value (rape; [5]) was 8 and the “Rape plant response rating” value (rape; [6]) was 10. For the same molecule, the “Rape plant response rating” value (rape; [8]) was 0, the “Rice plant response rating” value (rice; [9]) was 0 and the “Rice plant response rating” value (rice; [10]) was 0. The “Rice plant response rating” value (rice; [11]) was 0, the “Sugarbeets plant response rating” value (sugar beet; [1]) was 3 and the “Sugarbeets plant response rating” value (sugar beet; [2]) was 3. For the same molecule, the “Plant response rating, Sugarbeets” value (sugar beet; [3]) was 0, the “Plant response rating, Sugarbeets” value (sugar beet; [4]) was 3 and the “Sugarbeets plant response rating” value (sugar beet; [5]) was 4. The “Sugarbeets plant response rating” value (sugar beet; [6]) was 6, the “Sugarbeets plant response rating” value (sugar beet; [8]) was 3 and the “Velvetleaf plant response rating” value (velvetleaf; [1]) was 1. For the same molecule, the “Velvetleaf plant response rating” value (velvetleaf; [2]) was 2, the “Plant response rating, Velvetleaf” value (velvetleaf; [3]) was 0 and the “Plant response rating, Velvetleaf” value (velvetleaf; [4]) was 2. The “Velvetleaf plant response rating” value (velvetleaf; [5]) was 2, the “Velvetleaf plant response rating” value (velvetleaf; [6]) was 5 and the “Velvetleaf plant response rating” value (velvetleaf; [8]) was 0. The “Redroot pigweed plant response rating” value (pigweed; [1]) was 5, the “Redroot pigweed plant response rating” value (pigweed; [2]) was 6 and the “Plant response rating, Redroot pigweed” value (pigweed; [3]) was 2. The “Plant response rating, Redroot pigweed” value (pigweed; [4]) was 4, the “Redroot pigweed plant response rating” value (pigweed; [5]) was 8 and the “Redroot pigweed plant response rating” value (pigweed; [6]) was 10. For the same molecule, the “Redroot pigweed plant response rating” value (pigweed; [8]) was 0, the “B. signalgrass plant response rating” value (surinam grass; Postemergence, Rate 250 g/ha, scale 0 to 10, 0 no effect, 10 complete control) was 7 and the “B. signalgrass plant response rating” value (surinam grass; [2]) was 8. The “Plant response rating, B. signalgrass” value (surinam grass; [3]) was 4, the “Plant response rating, B. signalgrass” value (surinam grass; [4]) was 4 and the “B. signalgrass plant response rating” value (surinam grass; [5]) was 6. The “B. signalgrass plant response rating” value (surinam grass; Preemergence, Rate 500 g/ha, scale of 0 to 10 where 0 is no effect and 10 is complete control) was 8, the “B. signalgrass plant response rating” value (surinam grass; [7]) was 2 and the “B. signalgrass plant response rating” value (surinam grass; [8]) was 5. For the same molecule, the “Soybean plant response rating” value (soybean; [1]) was 6, the “Soybean plant response rating” value (soybean; [2]) was 7 and the “Plant response rating, Soybean” value (soybean; [3]) was 0. For the same molecule, the “Plant response rating, Soybean” value (soybean; [4]) was 0, the “Soybean plant response rating” value (soybean; [5]) was 0 and the “Soybean plant response rating” value (soybean; [6]) was 0. The “Soybean plant response rating” value (soybean; [8]) was 4, the “Nutsedge plant response rating” value (purple nutsedge; [1]) was 0 and the “Nutsedge plant response rating” value (purple nutsedge; [2]) was 3. For the same molecule, the “Plant response rating, Nutsedge” value (purple nutsedge; [3]) was 0, the “Plant response rating, Nutsedge” value (purple nutsedge; [4]) was 0 and the “Nutsedge plant response rating” value (purple nutsedge; [5]) was 0. For the same molecule, the “Nutsedge plant response rating” value (purple nutsedge; [6]) was 0, the “Nutsedge plant response rating” value (purple nutsedge; [8]) was 0 and the “Crabgrass plant response rating” value (crabgrass; [1]) was 9. For the same molecule, the “Crabgrass plant response rating” value (crabgrass; [2]) was 9, the “Plant response rating, Crabgrass” value (crabgrass; [3]) was 8 and the “Plant response rating, Crabgrass” value (crabgrass; [4]) was 9. The “Crabgrass plant response rating” value (crabgrass; [5]) was 10, the “Crabgrass plant response rating” value (crabgrass; [6]) was 10 and the “Crabgrass plant response rating” value (crabgrass; [7]) was 1. For the same molecule, the “Crabgrass plant response rating” value (crabgrass; [8]) was 6, the “Corn plant response rating” value (corn; [1]) was 2 and the “Corn plant response rating” value (corn; [2]) was 4. For the same molecule, the “Plant response rating, Corn” value (corn; [3]) was 0, the “Plant response rating, Corn” value (corn; [4]) was 0 and the “Corn plant response rating” value (corn; [5]) was 0. The “Corn plant response rating” value (corn; [6]) was 6, the “Corn plant response rating” value (corn; [7]) was 0 and the “Corn plant response rating” value (corn; [8]) was 0. The “Wild oats plant response rating” value (wild oat; [1]) was 2, the “Wild oats plant response rating” value (wild oat; [2]) was 2 and the “Plant response rating, Wild oats” value (wild oat; [3]) was 2. For the same molecule, the “Plant response rating, Wild oats” value (wild oat; [4]) was 7, the “Wild oats plant response rating” value (wild oat; [5]) was 8 and the “Wild oats plant response rating” value (wild oat; [6]) was 10. For the same molecule, the “Wild oats plant response rating” value (wild oat; [8]) was 0.
